Like-named read-outs stand apart in the source and are kept apart here.
Tests used:
[1] = Physicochemical properties (density)
α1β2γ2L GABAA receptors = target: T1, α1β2γ2L GABAA receptors (Homo sapiens, UniProt P14867+P47870); assay: cell-based
T1 construct: expressed in transfected cells; host or cells: Xenopus laevis oocytes
Protocol: GABAA receptor expression in X. laevis oocytes was completed as described previously ([40]). cDNAs for GABAA receptor α1, β2, and γ2L subunits were generously provided by Dr. Robert Pearce (University of Wisconsin). All animal care and experimental procedures involving X. laevis frogs were carried out according to a protocol approved by the IACUC of Thomas Jefferson University. GABAA receptor currents expressed in X. laevis oocytes were recorded as reported previously ([40]). Data acquisition and initial analysis were performed using pClamp 9.2/10.3 (Molecular Devices, Sunnyvale, CA). Macroscopic currents were low-pass filtered at 1 kHz and digitized at 2 kHz. Data were fit to a sigmoidal dose-response curve with variable Hill slope.

X. laevis tadpoles = assay: animal or person; type: in vivo; settings: for EC50: Xenopus laevis, read-out: EC50 (95% CI); for observable toxicity in tadpoles / pharmacological end point in tadpoles: in vivo
Protocol: Behavioral activity was initially determined in albino X. laevis tadpoles (stages 45–47) as described previously ([29], [33]). All animal care and experimental procedures involving X. laevis tadpoles were carried out according to a protocol approved by the IACUC of the University of Pennsylvania.

horse spleen apoferritin [2] = target: T2, horse spleen apoferritin (Equus caballus, UniProt P02791); assay: Isothermal titration calorimetry binding to apoferritin; settings: one-site model, read-out: KD (95% CI), ITC
T2 construct: soluble protein model horse spleen apoferritin; from tissue; host or cells: horse spleen
T2 sequence (P02791 2-175 limits assumed): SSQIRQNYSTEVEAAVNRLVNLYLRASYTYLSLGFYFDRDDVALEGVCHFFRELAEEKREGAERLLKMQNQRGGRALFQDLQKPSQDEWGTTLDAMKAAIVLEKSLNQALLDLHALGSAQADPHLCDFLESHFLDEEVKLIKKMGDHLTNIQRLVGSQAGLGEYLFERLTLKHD
Protocol: Isothermal titration calorimetry isotherms for binding to soluble protein model horse spleen apoferritin were conducted as reported previously ([31]) and were resolved using a VP-isothermal titration calorimetry microcalorimeter (MicroCal, Inc., Northampton, MA). Origin 5.0 software was used to best-fit thermodynamic parameters to the heat profiles.

horse spleen apoferritin [3] = target: T2, horse spleen apoferritin; assay: 1-AMA displacement fluorescence assay; type: binding
Protocol: 1-AMA fluorescence inhibition has been reported as a reliable measurement of anesthetic occupation of the horse spleen apoferritin anesthetic site ([64]). 1-AMA displacement studies were conducted as described previously ([29]). The fluorescence intensity versus concentration data were fitted to variable slope Hill models to obtain the IC50 and Hill slope. The KD value was calculated using the Cheng-Prusoff equation to correct for the presence of the 1-AMA competitors.

T1 sequence (P14867 28-456): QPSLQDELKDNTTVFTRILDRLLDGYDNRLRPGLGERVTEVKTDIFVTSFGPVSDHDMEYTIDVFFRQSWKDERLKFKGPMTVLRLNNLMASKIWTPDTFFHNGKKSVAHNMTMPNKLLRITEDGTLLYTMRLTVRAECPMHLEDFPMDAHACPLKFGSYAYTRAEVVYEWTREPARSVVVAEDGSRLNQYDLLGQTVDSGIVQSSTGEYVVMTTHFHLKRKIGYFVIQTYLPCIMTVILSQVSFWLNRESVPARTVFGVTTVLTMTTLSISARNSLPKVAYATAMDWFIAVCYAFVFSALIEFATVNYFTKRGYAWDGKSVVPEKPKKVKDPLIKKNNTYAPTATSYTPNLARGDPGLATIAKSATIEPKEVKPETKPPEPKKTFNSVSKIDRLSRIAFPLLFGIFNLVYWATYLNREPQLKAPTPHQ
T1 sequence (P47870 25-512 limits assumed): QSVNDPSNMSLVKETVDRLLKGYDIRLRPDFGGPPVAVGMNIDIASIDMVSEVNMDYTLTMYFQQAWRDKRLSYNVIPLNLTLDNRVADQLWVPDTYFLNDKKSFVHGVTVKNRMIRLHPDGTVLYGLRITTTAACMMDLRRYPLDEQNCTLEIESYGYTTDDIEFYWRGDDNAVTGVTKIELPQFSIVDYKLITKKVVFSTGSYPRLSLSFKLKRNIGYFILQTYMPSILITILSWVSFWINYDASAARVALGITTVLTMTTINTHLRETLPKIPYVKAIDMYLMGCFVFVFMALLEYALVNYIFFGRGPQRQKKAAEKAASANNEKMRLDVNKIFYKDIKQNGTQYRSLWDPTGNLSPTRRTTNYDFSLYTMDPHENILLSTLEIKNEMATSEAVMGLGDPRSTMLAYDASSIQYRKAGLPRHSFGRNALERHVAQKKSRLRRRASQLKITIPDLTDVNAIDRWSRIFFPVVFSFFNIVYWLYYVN
T1 sequence (P18507 40-475 partner): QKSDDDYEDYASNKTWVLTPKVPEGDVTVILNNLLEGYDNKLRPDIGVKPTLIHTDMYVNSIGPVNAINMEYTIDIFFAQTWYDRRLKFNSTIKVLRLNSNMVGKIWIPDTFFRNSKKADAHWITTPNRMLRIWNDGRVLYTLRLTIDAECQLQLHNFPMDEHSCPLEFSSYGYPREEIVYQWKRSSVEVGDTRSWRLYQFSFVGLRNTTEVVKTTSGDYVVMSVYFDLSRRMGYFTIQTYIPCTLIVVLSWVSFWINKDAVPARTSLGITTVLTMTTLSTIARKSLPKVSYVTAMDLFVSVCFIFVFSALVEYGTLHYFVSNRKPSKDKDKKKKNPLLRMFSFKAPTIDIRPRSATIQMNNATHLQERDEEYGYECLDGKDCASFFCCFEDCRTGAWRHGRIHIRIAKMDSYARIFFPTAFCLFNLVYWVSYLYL

SMILES | Density [1] [g/mL] | EC50 (α1β2γ2L GABAA receptors; read-out: EC50 for positive modulation) [µM] | EC50 (X. laevis tadpoles) [µM] | observable toxicity in tadpoles (X. laevis tadpoles) | pharmacological end point in tadpoles (X. laevis tadpoles) | Kd (horse spleen apoferritin [2]) [µM] | Hill slope (mean ± S.E.), 1-AMA displacement (horse spleen apoferritin [3]) | Kd (horse spleen apoferritin [3]; fluorescence data derived from the Cheng-Prusoff equation, read-out: KD (95% CI), 1-AMA displacement) [µM] | EC50 (α1β2γ2L GABAA receptors) [µM] | Kd (horse spleen apoferritin [3]) [µM]
C#CCOCc1ccc(C2(C(F)(F)F)N=N2)cc1O [AziPm-click (1), 2-((prop-2-yn-1-yloxy)methyl)-5-(3-(trifluoromethyl)-3H-diazirin-3-yl)phenol] | 1.19 | 49 | 6.1 | no observable toxicity | reversible hypnosis | 22 | −0.97 ± 0.39 | 4 | – | –
CC(C)c1cccc(C(C)C)c1O [propofol, 2,6-diisopropylphenol, reference compound] | 0.96 | – | 0.9 | no observable toxicity | reversible hypnosis | 9 | −1.1 ± 0.33 | – | 10 | 2.4
